The results in this text go back to patent publication US10239832B2, “N-(1-hydroxy-3-(pyrrolidinyl)propan-2-yl)pyrrolidine-3-carboxamide derivatives as glucosylceramide synthase inhibitors” (BIOMARIN PHARMACEUTICAL INC., priority 2013, dated 2019).

The experiment has as its target T1, GCS (Canis lupus familiaris, UniProt A0A8I3MXG6).
T1 construct: endogenous in cells; host or cells: MDCK (Madin-Darby canine kidney) cells, whole-cell lysate
T1 sequence (A0A8I3MXG6 1-394): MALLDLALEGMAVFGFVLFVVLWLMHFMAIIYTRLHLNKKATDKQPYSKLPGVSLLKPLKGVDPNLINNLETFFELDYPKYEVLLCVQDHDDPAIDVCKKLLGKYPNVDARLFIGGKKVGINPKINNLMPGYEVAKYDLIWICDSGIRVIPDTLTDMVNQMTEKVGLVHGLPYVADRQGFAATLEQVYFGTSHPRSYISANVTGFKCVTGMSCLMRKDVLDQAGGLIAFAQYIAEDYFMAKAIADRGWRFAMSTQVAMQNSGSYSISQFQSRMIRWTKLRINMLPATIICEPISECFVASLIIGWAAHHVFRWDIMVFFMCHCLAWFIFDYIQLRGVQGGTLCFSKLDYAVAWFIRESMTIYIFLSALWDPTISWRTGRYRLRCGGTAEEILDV
As to the kind of experiment: GCS enzymatic assay (MDCK cell lysate, NBD-ceramide to glucosylceramide, LC/MS). The settings on record: Table 2, the table does not say which of the assays; for Data Range (% inhibition): class symbols D, E, F, NA (not active); for IC50: class symbols A, B, C, read-out: Data Range (IC50 values). Type of experiment: biochemical, canine. A digest of the protocol:
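IC50 or percent inhibition came from LC/MS/MS (ESI+, MRM) of NBD-ceramide and glucosylceramide, with tolbutamide as internal standard. The reaction used MDCK (canine) cell lysate as the enzyme source and was ended with acetonitrile. Mock wells received 0.1% DMSO.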

As usually defined, the IC50 is the midpoint of a concentration-inhibition curve.

Regarding `O=C(N[C@H](CN1CCCC1)[C@H](O)c1ccc2c(c1)OCCO2)[C@@H]1CCN(Cc2ccc(Cl)cc2)C1` [Compound 15, (R)-1-(4-chlorobenzyl)-N-((1R,2R)-1-(2,3-dihydrobenzo[b][1,4]dioxin-6-yl)-1-hydroxy-3-(pyrrolidin-1-yl)propan-2-yl)pyrrolidine-3-carboxamide], the “Data Range (% inhibition)” value is recorded as “F (1-49% (or less than 50%))”.
Regarding `O=C(N[C@H](CN1CCCC1)[C@H](O)c1ccc(OC2CC2)c(Cl)c1)[C@@H]1CCN(c2cc(Oc3ccccn3)ccc2Cl)C1` [Compound 118, (R)-N-((1R,2R)-1-(3-chloro-4-cyclopropoxyphenyl)-1-hydroxy-3-(pyrrolidin-1-yl)propan-2-yl)-1-(2-chloro-5-(pyridin-2-yloxy)phenyl)pyrrolidine-3-carboxamide], the IC50 lay within 1 to 30 nM.
Same read-out and setting: for `O=C(N[C@H](CN1CCCC1)[C@H](O)c1ccc(OC2CC2)c(Cl)c1)[C@@H]1CCN(c2ccc3cc(Cl)ccc3n2)C1` [Compound 100, (R)-N-((1R,2R)-1-(3-chloro-4-cyclopropoxyphenyl)-1-hydroxy-3-(pyrrolidin-1-yl)propan-2-yl)-1-(6-chloroquinolin-2-yl)pyrrolidine-3-carboxamide] the value was 1 to 30 nM.
Still for that read-out and setting: with `O=C(N[C@H](CN1CCCC1)[C@H](O)c1ccc2c(c1)OCCO2)C1CCN(c2ccc3cc(Cl)sc3c2)C1` (stereo partly drawn) [Compound 76D, 1-(2-chlorobenzo[b]thiopen-6-yl)-N-((1R,2R)-1-(2,3-dihydrobenzo[b][1,4]dioxin-6-yl)-1-hydroxy-3-(pyrrolidin-1-yl)propan-2-yl)pyrrolidine-3-carboxamide] the figure was 1 to 30 nM.
Take `O=C(N[C@H](CN1CCCC1)[C@H](O)c1ccc2c(c1)OCCO2)C1CCN(c2ccc3nccnc3c2)C1` (stereo partly drawn) [Compound 83C, N-((1R,2R)-1-(2,3-dihydrobenzo[b][1,4]dioxin-6-yl)-1-hydroxy-3-(pyrrolidin-1-yl)propan-2-yl)-1-(quinoxalin-6-yl)pyrrolidine-3-carboxamide]: the “Data Range (% inhibition)” value is given as “F (1-49% (or less than 50%))”.
Take `O=C(N[C@H](CN1CCCC1)[C@H](O)c1ccc(OC2CC2)nc1)[C@H]1CCN(c2ccc(F)cc2)C1` [Compound 27C, (S)-N-((1R,2R)-1-(6-cyclopropoxypyridin-3-yl)-1-hydroxy-3-(pyrrolidin-1-yl)propan-2-yl)-1-(4-fluorophenyl)pyrrolidine-3-carboxamide]: the “Data Range (% inhibition)” value was “F (1-49% (or less than 50%))”.
As to `O=C(N[C@H](CN1CCCC1)[C@H](O)c1ccc(OC2CC2)c(Cl)c1)[C@H]1CCN(c2ccc3c(c2)CCCC3)C1` [Compound 98A, (S)-N-((1R,2R)-1-(3-chloro-4-cyclopropoxyphenyl)-1-hydroxy-3-(pyrrolidin-1-yl)propan-2-yl)-1-(5,6,7,8-tetrahydronaphthalen-2-yl)pyrrolidine-3-carboxamide], the “Data Range (% inhibition)” value was “F (1-49% (or less than 50%))”.
Regarding `O=C(N[C@H](CN1CCCC1)[C@H](O)c1ccc(SC2CC2)c(Cl)c1)[C@@H]1CCN(c2ccc(Cl)cc2)C1` [Compound 145, (R)-N-((1R,2R)-1-(3-chloro-4-(cyclopropylthio)phenyl)-1-hydroxy-3-(pyrrolidin-1-yl)propan-2-yl)-1-(4-chlorophenyl)pyrrolidine-3-carboxamide], the IC50 was in the range of 1 to 30 nM.
With `O=C(N[C@H](CN1CCCC1)[C@H](O)c1ccc2c(c1)OCCO2)C1CCN(C2Cc3ccccc3C2)C1` (stereo partly drawn) [Compound 55A, 1-(2,3-dihydro-1H-inden-2-yl)-N-((1R,2R)-1-(2,3-dihydrobenzo[b][1,4]dioxin-6-yl)-1-hydroxy-3-(pyrrolidin-1-yl)propan-2-yl)pyrrolidine-3-carboxamide], the “Data Range (% inhibition)” value is “F (1-49% (or less than 50%))”.
The same measure, in the same setting: with `O=C(N[C@H](CN1CCCC1)[C@H](O)c1ccc2c(c1)OCCO2)[C@@H]1CCN(C2Cc3ccccc3C2)C1` [Compound 55, (R)-1-(2,3-dihydro-1H-inden-2-yl)-N-((1R,2R)-1-(2,3-dihydrobenzo[b][1,4]dioxin-6-yl)-1-hydroxy-3-(pyrrolidin-1-yl)propan-2-yl)pyrrolidine-3-carboxamide] the entry was “F (1-49% (or less than 50%))”; with `O=C(N[C@H](CN1CCCC1)[C@H](O)c1ccc(OC2CC2)c(Cl)c1)C1CCN(c2ccc(Cl)cc2)C1` (stereo in doubt) [Compound 3B, (R)-N-((1R,2R)-1-(3-chloro-4-cyclopropoxyphenyl)-1-hydroxy-3-(pyrrolidin-1-yl)propan-2-yl)-1-(4-chlorophenyl)pyrrolidine-3-carboxamide], “F (1-49% (or less than 50%))”; with `O=C(N[C@H](CN1CCCC1)[C@H](O)c1ccc2c(c1)OCCO2)C1CCN(CCc2ccc(Cl)cc2)C1` (stereo partly drawn) [Compound 21E, 1-(4-chlorophenethyl)-N-((1R,2R)-1-(2,3-dihydrobenzo[b][1,4]dioxin-6-yl)-1-hydroxy-3-(pyrrolidin-1-yl)propan-2-yl)pyrrolidine-3-carboxamide], “F (1-49% (or less than 50%))”.
`O=C(N[C@H](CN1CCCC1)[C@H](O)c1ccc(OC2CC2)c(Cl)c1)[C@@H]1CCN(c2ccc3ccccc3c2)C1` [Compound 67, (R)-N-((1R,2R)-1-(3-chloro-4-cyclopropoxyphenyl)-1-hydroxy-3-(pyrrolidin-1-yl)propan-2-yl)-1-(naphthalen-2-yl)pyrrolidine-3-carboxamide]: the IC50 was 1 to 30 nM.
For the molecule `O=C(N[C@H](CN1CCCC1)[C@H](O)c1ccc2c(c1)OCCO2)C1CCN(c2ccc3cc(Cl)ccc3n2)C1` (stereo partly drawn) [Compound 99C, 1-(6-chloroquinolin-2-yl)-N-((1R,2R)-1-(2,3-dihydrobenzo[b][1,4]dioxin-6-yl)-1-hydroxy-3-(pyrrolidin-1-yl)propan-2-yl)pyrrolidine-3-carboxamide], the IC50 fell in the range of 1 to 30 nM.
Take `O=C(N[C@H](CN1CCCCC1)[C@H](O)c1cc(F)c2c(c1)OCCO2)[C@@H]1CCN(c2ccc(Cl)cc2)C1` [Compound 44, (R)-1-(4-chlorophenyl)-N-((1R,2R)-1-(8-fluoro-2,3-dihydrobenzo[b][1,4]dioxin-6-yl)-1-hydroxy-3-(piperidin-1-yl)propan-2-yl)pyrrolidine-3-carboxamide]: the “Data Range (% inhibition)” value is on record as “F (1-49% (or less than 50%))”.
The same measure, in the same setting: with `O=C(N[C@H](CN1CCCC1)[C@H](O)c1ccc2c(c1)OCCO2)C1CCN(C2CCCCC2)C1` (stereo partly drawn) [Compound 26, 1-cyclohexyl-N-((1R,2R)-1-(2,3-dihydrobenzo[b][1,4]dioxin-6-yl)-1-hydroxy-3-(pyrrolidin-1-yl)propan-2-yl)pyrrolidine-3-carboxamide] the entry was “NA (not active—a negative value was generated for % inhibition)”; with `O=C(N[C@H](CN1CCCCC1)[C@H](O)c1ccc2c(c1)OCCO2)[C@@H]1CCN(c2ccc(F)cc2)C1` [Compound 46, (R)-N-((1R,2R)-1-(2,3-dihydrobenzo[b][1,4]dioxin-6-yl)-1-hydroxy-3-(piperidin-1-yl)propan-2-yl)-1-(4-fluorophenyl)pyrrolidine-3-carboxamide], “F (1-49% (or less than 50%))”.
Regarding `O=C(N[C@H](CN1CCCC1)[C@H](O)c1ccc(OC2CC2)cc1)[C@@H]1CCN(c2ccc3ccsc3c2)C1` [Compound 157, (R)-1-(benzo[b]thiophen-6-yl)-N-((1R,2R)-1-(4-cyclopropoxyphenyl)-1-hydroxy-3-(pyrrolidin-1-yl)propan-2-yl)pyrrolidine-3-carboxamide], the IC50 fell in the range of 1 to 30 nM.
Take `O=C(N[C@H](CN1CCCC1)[C@H](O)c1ccc(OC2CC2)c(Cl)c1)[C@@H]1CCN(c2cccc(Oc3ccc(Cl)cc3)n2)C1` [Compound 112, (R)-N-((1R,2R)-1-(3-chloro-4-cyclopropoxyphenyl)-1-hydroxy-3-(pyrrolidin-1-yl)propan-2-yl)-1-(6-(4-chlorophenoxy)pyridin-2-yl)pyrrolidine-3-carboxamide]: the IC50 is 1 to 30 nM.
Same read-out and setting: for `O=C(N[C@H](CN1CCCC1)[C@H](O)c1ccc2c(c1)OCCO2)[C@@H]1CCN(c2ccc3cc(Cl)ccc3n2)C1` [Compound 99, (R)-1-(6-chloroquinolin-2-yl)-N-((1R,2R)-1-(2,3-dihydrobenzo[b][1,4]dioxin-6-yl)-1-hydroxy-3-(pyrrolidin-1-yl)propan-2-yl)pyrrolidine-3-carboxamide] the value was 1 to 30 nM.
Same read-out and setting: for `N#Cc1ccc(N2CCC(C(=O)N[C@H](CN3CCCC3)C(O)c3ccc(OC4CC4)c(Cl)c3)C2)cc1` (stereo in doubt) [Compound 152C, (R)-N-((1S,2R)-1-(3-chloro-4-cyclopropoxyphenyl)-1-hydroxy-3-(pyrrolidin-1-yl)propan-2-yl)-1-(4-cyanophenyl)pyrrolidine-3-carboxamide] the value was 30 to 100 nM; for `O=C(N[C@H](CN1CCCC1)[C@H](O)c1ccc2c(c1)OCCO2)C1CCN(c2ccc3ccsc3c2)C1` (stereo partly drawn) [Compound 53C, 1-(benzo[b]thiophen-6-yl)-N-((1R,2R)-1-(2,3-dihydrobenzo[b][1,4]dioxin-6-yl)-1-hydroxy-3-(pyrrolidin-1-yl)propan-2-yl)pyrrolidine-3-carboxamide], 30 to 100 nM; for `O=C(N[C@H](CN1CCCC1)[C@H](O)c1ccc(Cl)cc1)[C@@H]1CCN(c2ccc(Cl)cc2)C1` [Compound 156, (R)-1-(4-chlorophenyl)-N((1R,2R)-1-(4-chlorophenyl)-1-hydroxy-3-(pyrrolidin-1-yl)propan-2-yl)pyrrolidine-3-carboxamide], 100 to 1000 nM.
